Measurements reported in patent publication US9526712B2, “Methods and agents for preventing and treating plasma cell dyscrasias” (NEW YORK UNIVERSITY, priority 2013, dated 2016).

Experiments:
[1] = system: KMS11 and ARP-1 MM cells expressing Gluc; test: Gluc (Gaussia luciferase) secretion screen; assay type: cell-based, human; settings: 5 μM compound, 24 hours, % RLU relative to DMSO control
Text: Using decreased protein processing in the secretory pathway as a measurable hallmark of ER stress, the screen described herein employs the naturally secreted Gaussia luciferase (Gluc) as a reporter that can be easily monitored through extracellular release of luciferase activity in real time. KMS11 and ARP-1 MM cells expressing Gluc were exposed to compounds in a natural products library in order to identify those which potentially induce ER stress as measured by inhibition of Gluc secretion. Both KMS11 and ARP-1 are human MM cells lines routinely used in the literature as in vitro models of MM. See, for example, Paterson et al., Br J Haematol, 2004, 124, 595-603; Pedranzini et al., Cancer Res, 2006, 66, 9714-9721; Stein et al., Clin Cancer Res, 2009, 15, 2808-2817; St-Germain J R. et al., Proc Natl Acad Sci USA, 2009, 106, 20127-20132; Gojo et al., Clin Cancer Res, 2002, 8, 3527-3538; Drucker et al., Carcinogenesis, 2006, 27, 197-204; Weiss et al., Br J Cancer, 2012, 107, 1844-1852; and Wang et al., Clin Cancer Res, 2006, 12, 49-56; the entire content of each of which is incorporated herein by reference. […] For screening, KMS11 and ARP1 cells were seeded in 96-well plates and treated with 5 μM of compounds from the Spectrum library (Microsource Discoveries) for 24 hours. Conditioned medium from each compound treatment was harvested to assay Gluc secretion alongside samples treated with DMSO alone, BTZ and TM as controls. Compounds of interest were considered to be those that inhibit Gluc secretion in both cell lines at least 30% after 24 hours treatment. See, for example, FIG. 1. […] For screening, […] Conditioned medium from each compound treatment was harvested to assay Gluc secretion alongside samples treated with DMSO alone, BTZ and TM as controls. Compounds of interest were considered to be those that inhibit Gluc secretion in both cell lines by at least 30% after 24 hours treatment. […]

[2] = system: panel of 60 different cancer cell lines; test: NCI 60 cell screen growth inhibitory activity; assay type: cell-based; settings: NCI 60 cell panel
Text: Although SAC has been used to treat other types of cancer including colon, lung, breast and liver, the present inventors are unaware of any studies pertaining to its efficacy in MM, MGUS or SMM. One major difference between these types of cancers relates to the fact that those that have been assessed with regard to SAC' s efficacy are solid tumors, whereas MM is a blood cancer. Further to this point, the present inventors submitted SAC for analysis in the Developmental Therapeutics Program at the NCI/NIH. The growth inhibitory activity of SAC was assessed in the NCI 60 cell screen, which is a panel of 60 different cancer cell lines. […] SAC anti-cancer activity must, therefore, be determined empirically for each cancer, due to the lack of predictability of response. Therefore, a compound's ability to act as a therapeutic agent in one cancer, e.g. colon, is not necessarily predictive of its properties with respect to a different cancer, even a related cancer. It is also noteworthy that no MM cell lines are represented in the 60 cell panel. This underscores the fact that, in advance of the present findings, MM cell lines were not thought to be suitable targets for examining SAC anti-cancer activity.

KMS11 MM cells [3] = test: Western blotting of UPR markers and apoptotic marker; assay type: cell-based, human; settings: western blot
Text: In order to investigate the mechanism of SAC mediated ER stress response, the present inventors evaluated key unfolded protein response (UPR) markers including phospho-eIF2α and BIP as well as the apoptotic marker cleaved PARP by standard western blotting techniques. […] See also FIG. 3.

[4] = system: KMS11 and ARP1 multiple myeloma cells; test: XBP1 cleavage assay (semi-quantitative RT-PCR); assay type: cell-based, human; settings: 0.5 uM SAC, 24 hours
Procedure: The XBP1 cleavage assay used to generate the results presented in FIG. 6 was performed as follows. KMS11 and ARP1 cells were treated with 0.5 uM SAC or 10 ng/ml tunicamycin (TM, positive control) for 24 hours. Total RNA was isolated from lysed cells with the RNeasy Mini kit (Qiagen, Germantown, Md., USA). XBP1 splicing was assessed by semi-quantitative RT-PCR as described previously (Lin, et al. Science, 2007. 318(5852):944-9; Manga et al. Pigment Cell Melanoma Res, 2010. 23(5):627-34; the entire content of each of which is incorporated herein by reference). cDNA was produced from total RNA preps using ImProm-II Reverse Transcription System (Promega). Primers spanning the fragment of XBP1 containing the intron targeted by Irela were used: 5′-[…]-3′ and 5′-[…]-3′. The thermal PCR cycling conditions are as follows: 95° C. for 5 min, 95° C. for 1 min, 58° C. for 30 s, 72° C. for 30 s, and 72° C. for 5 min with 35 cycles of amplification. In order to properly distinguish the PCR products, samples were digested with Pst1 (New England Biolabs, Ipswich, Mass., USA) that only cuts the unspliced cDNA (Calfon et al. Nature, 2002. 415(6867):92-6). Products were then separated on a 2.0% agarose/1× TAE gel and visualized by ethidium bromide.

ARP1 MM cells = test: Cellular proliferation by MTT assay (CellTiter 96 AQ); assay type: cell-based; settings: Homo sapiens, ARP-1, 72 hr treatment
Text: (§1) The growth inhibitory activity of SAC was further characterized by MTT assay. These experiments assess cellular proliferation using the CellTiter 96 AQ Non-Radioactive Cell Proliferation Assay (Promega). This assay determines the number of living cells based upon the bioreduction of MTS tetrazolium compound into a colored formazan product. The quantity of product, as measured by absorbance on a microplate reader at 495 nm, is directly proportional to the number of living cells in culture. All cells were seeded in 96-well plates at a density of 5,000 cells per well. After overnight incubation, cells were treated with SAC at the indicated concentrations. After a 72 hr incubation period, proliferation was assessed. Cellular proliferation was expressed as a percentage with vehicle-treated cells set at 100%. See, for example, FIG. 2.
(§2) The cell proliferation assay performed to generate the results presented in FIG. 5, for example, was performed as described elsewhere herein. Briefly, all cells were seeded in 96-well plates at a density of 5000 cells per well. After overnight incubation, cells were treated with a candidate compound at concentrations ranging from 100 nM to 10000 nM. After a 72 hr incubation period, proliferation was assessed using a tetrazolium dye reduction assay (CellTiter 96 AQueous Non-Radioactive Cell Proliferation Assay; Promega, Madison, Wis.). Absorbance was recorded on a microplate reader at 490 nm. Cellular proliferation was expressed as a percentage with vehicle-treated cells set at 100%. Each assay was performed in triplicate with mean values reported.

KMS11 MM cells [5] = test: as above; assay type: cell-based; settings: Homo sapiens, KMS-11, 72 hr treatment
Text: as §1, §2

[6] = system: bone marrow (BM) mononuclear cells isolated from a patient with smoldering multiple myeloma (SMM); test: Cellular proliferation of SMM bone marrow mononuclear cells; assay type: cell-based, human; settings: 100 nM to 10000 nM, 72 hr
Text: To explore the effects of SAC in the context of SMM, the present inventors tested the activity of SAC in bone marrow (BM) mononuclear cells isolated from a patient with smoldering multiple myeloma (SMM). To isolate the BM mononuclear cells, heparinized BM samples were freshly obtained from a SMM patient, diluted in PBS, and subjected to Ficoll-Hypaque density separation. Mononuclear cells are carefully collected from the PBS-Ficoll interface, washed in PBS and pelleted. The cell proliferation assay was performed by seeding the SMM BM mononuclear cells in 96-well plates at a density of 5000 cells per well. After overnight incubation, cells were treated with SAC at concentrations ranging from 100 nM to 10000 nM. After a 72 hr incubation period, proliferation was assessed using a tetrazolium dye reduction assay (CellTiter 96 AQueous Non-Radioactive Cell Proliferation Assay; Promega, Madison, Wis.). Absorbance was recorded on a microplate reader at 490 nm. Cellular proliferation was expressed as a percentage with vehicle-treated cells set at 100%. Each assay was performed in triplicate with mean values reported.

SMILES | inhibition of Gluc secretion [1] | inhibition of Gluc secretion ([1]; listed as alliicin) | mean growth percent across all 60 cell lines [2] | BIP expression (KMS11 MM cells [3]) | cleavage of PARP (KMS11 MM cells [3]) | phosphorylation of eIF2-α (KMS11 MM cells [3]) | splicing of XBP1 [4] | IC50 (ARP1 MM cells) [nM] | IC50 (KMS11 MM cells [5]) [nM] | inhibition of cellular proliferation [6]
C=CC[S+]([O-])C[C@H](N)C(=O)O (stereo partly shown) [alliin, Allylcysteine sulfoxide] | not found to be effective at inhibiting GLUC secretion | did not exhibit an ability to target ER stress mediated pathways | – | – | – | – | – | – | – | –
C=CCSC[C@H](N)C(=O)O [SAC, S-allylcysteine] | inhibited Gluc secretion as effectively as 5 μM BTZ | – | 106 | increased BIP expression | cleavage of PARP | enhanced phosphorylation of eIF2-α | enhanced splicing of the UPR transcription factor XBP1 | 1900 | 1500 | dose-dependent inhibition of cellular proliferation
CCCSC[C@H](N)C(=O)O [SPC, S-propyl cysteine, reference compound] | – | – | – | – | – | – | – | > 10000 | > 10000 | –
